# Assay results: ChEMBL document CHEMBL5385887, “Discovery of Sibiriline derivatives as novel receptor-interacting protein kinase 1 inhibitors” (Eur J Med Chem, 2023)
# Calls of active or inactive are those of the source. No cut-off for these calls is given here.
# Key:
# L929 [1] = experiment: Anti-necroptosis activity against TNFalpha/z-VAD-fmk-induced mouse L929 cell necroptosis model assessed as prevention of necroptosis pretreated with compound for 1 hr followed by treated with TZ for 6 hrs by Hoechst 33342/PI staining based flow cytometric analysis; type: functional; conditions: dose 10-250 nmol/L, time 7.0 hrs
# Mus musculus [2] = experiment: (§1) In vivo anti-necroptotic effect in TNFalpha-induced systemic inflammatory response syndrome C57BL/6J mouse model assessed as reduction in hypothermic injury by measuring increase in survival at 40 mg/kg, ip followed by compound treatment after 1 hr injected moue TNFalpha and measured continuously upto 72 hrs; type: functional; conditions: time 73 hrs
# L929 [3] = experiment: Anti-necroptosis activity against TNFalpha/z-VAD-fmk-induced mouse L929 cell necroptosis model assessed as increase in viable cells pretreated with compound for 1 hr followed by treated with TZ for 6 hrs by Hoechst 33342/PI staining based flow cytometric analysis; type: functional; conditions: time 7.0 hrs
# HT-29 [4] = experiment: Anti-necroptosis activity against TSZ-induced human HT-29 cell necroptosis model assessed as cell viability pretreated with compound for 1 hr followed by treated with TSZ for 12 hrs; type: functional, cell-based; conditions: dose 0.039-10 µM, time 13.0 hrs
# [5] = molecular target: T1, Mixed lineage kinase domain-like protein (Mus musculus) (UniProt Q9D2Y4); experiment: Inhibition of MLKL phosphorylation in mouse L929 cells at 250 nM incubated for 0.5 to 2.5 hrs by Western blotting analysis; type: cell-based; conditions: time 0.5-2.5 hrs
# T1 sequence (whole entry): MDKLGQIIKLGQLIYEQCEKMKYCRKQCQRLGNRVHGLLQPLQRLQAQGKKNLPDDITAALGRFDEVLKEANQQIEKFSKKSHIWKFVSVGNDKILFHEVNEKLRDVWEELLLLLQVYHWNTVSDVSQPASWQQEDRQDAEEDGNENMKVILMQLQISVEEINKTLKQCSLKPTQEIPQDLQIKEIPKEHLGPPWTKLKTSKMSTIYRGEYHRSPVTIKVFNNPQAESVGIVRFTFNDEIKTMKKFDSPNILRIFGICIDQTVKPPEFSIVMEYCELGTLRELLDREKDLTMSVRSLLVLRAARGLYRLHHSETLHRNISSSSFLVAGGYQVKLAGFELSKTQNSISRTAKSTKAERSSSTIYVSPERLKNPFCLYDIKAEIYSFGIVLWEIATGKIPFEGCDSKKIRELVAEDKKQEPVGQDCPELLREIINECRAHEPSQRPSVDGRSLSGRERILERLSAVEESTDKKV
# [6] = molecular target: T2, Receptor-interacting serine/threonine-protein kinase 1 (Mus musculus) (UniProt Q60855); experiment: Inhibition of RIPK1 phosphorylation in mouse L929 cells at 250 nM by Western blotting analysis; type: cell-based; conditions: time 0.5-2.5 hrs, TDE = time-dependent effect
# T2 sequence (whole entry): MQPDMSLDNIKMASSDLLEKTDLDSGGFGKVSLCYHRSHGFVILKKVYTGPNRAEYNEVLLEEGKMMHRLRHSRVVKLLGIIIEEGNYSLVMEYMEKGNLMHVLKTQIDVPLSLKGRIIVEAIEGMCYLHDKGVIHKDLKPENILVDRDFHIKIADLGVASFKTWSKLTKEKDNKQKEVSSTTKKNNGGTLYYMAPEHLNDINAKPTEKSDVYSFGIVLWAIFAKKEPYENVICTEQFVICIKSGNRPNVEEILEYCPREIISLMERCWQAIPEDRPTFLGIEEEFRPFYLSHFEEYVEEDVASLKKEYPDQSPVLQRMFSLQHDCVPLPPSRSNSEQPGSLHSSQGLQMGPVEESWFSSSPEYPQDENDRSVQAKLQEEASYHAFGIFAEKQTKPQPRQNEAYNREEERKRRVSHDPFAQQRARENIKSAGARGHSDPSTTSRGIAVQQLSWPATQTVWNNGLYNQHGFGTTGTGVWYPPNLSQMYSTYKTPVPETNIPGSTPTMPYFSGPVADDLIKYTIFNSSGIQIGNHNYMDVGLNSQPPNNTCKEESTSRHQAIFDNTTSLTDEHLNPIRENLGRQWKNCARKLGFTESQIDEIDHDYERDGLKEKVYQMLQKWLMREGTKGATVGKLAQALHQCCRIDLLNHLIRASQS
# [7] = molecular target: T3, Receptor-interacting serine/threonine-protein kinase 1 (Homo sapiens, UniProt Q13546); experiment: Inhibition of RIPK1 (unknown origin) using MBP substrate incubated for 2 hrs by ADP-Glo kinase function assay
# T3 sequence (Q13546 whole entry): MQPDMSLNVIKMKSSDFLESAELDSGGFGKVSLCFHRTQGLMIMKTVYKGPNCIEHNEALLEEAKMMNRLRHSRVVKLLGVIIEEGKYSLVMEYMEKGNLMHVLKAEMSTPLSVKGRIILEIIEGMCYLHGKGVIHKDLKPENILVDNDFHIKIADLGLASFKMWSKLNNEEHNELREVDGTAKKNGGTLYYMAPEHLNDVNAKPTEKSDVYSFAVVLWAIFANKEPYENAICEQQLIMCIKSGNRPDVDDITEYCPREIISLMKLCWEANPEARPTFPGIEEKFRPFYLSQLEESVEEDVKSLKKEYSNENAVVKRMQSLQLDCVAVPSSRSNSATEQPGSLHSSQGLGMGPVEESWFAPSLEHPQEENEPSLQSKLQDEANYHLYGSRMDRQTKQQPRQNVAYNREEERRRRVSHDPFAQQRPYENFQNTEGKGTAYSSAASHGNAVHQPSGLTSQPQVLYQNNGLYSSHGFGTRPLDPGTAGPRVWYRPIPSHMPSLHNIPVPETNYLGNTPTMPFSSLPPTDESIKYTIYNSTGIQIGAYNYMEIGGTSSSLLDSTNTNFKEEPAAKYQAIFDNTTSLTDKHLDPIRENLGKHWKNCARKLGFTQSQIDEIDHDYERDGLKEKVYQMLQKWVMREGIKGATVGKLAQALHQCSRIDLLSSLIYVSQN
# Mus musculus [8] = experiment: as §1, with “10” for “40”; type: functional; conditions: time 73 hrs
# [9] = Cytotoxicity against mouse L929 cells by CCK-8 assay; type: toxicity, cell-based
# U-937 = experiment: Anti-necroptosis activity against TSZ-induced human U937 cell necroptosis model assessed as cell viability pretreated with compound for 1 hr followed by treated with TSZ for 12 hrs; type: functional, cell-based; conditions: dose 0.039-10 µM, time 13.0 hrs
# [10] = molecular target: Receptor-interacting serine/threonine-protein kinase 3 (Mus musculus) (UniProt Q9QZL0); experiment: Inhibition of RIPK3 phosphorylation in mouse L929 cells at 250 nM by Western blotting analysis; type: cell-based; conditions: time 0.5-2.5 hrs, TDE = time-dependent effect
# Mus musculus [11] = experiment: In vivo anti-necroptotic effect in TNFalpha-induced systemic inflammatory response syndrome C57BL/6J mouse model assessed as reduction in hypothermic injury at 10 to 40 mg/kg, ip followed by compound treatment after 1 hr injected moue TNFalpha and measured continuously upto 72 hrs; type: functional, organism-based; conditions: dose 10-40 mg/kg, time 73.0 hrs
# L929 [12] = experiment: Anti-necroptosis activity against TNFalpha/z-VAD-fmk-induced mouse L929 cell necroptosis model assessed as cell viability pretreated with compound for 1 hr followed by treated with TZ for 6 hrs; type: functional, cell-based
# Mus musculus [13] = experiment: as §1, with “25” for “40”; type: functional; conditions: time 73 hrs
# HT-29 [14] = experiment: Anti-necroptosis activity against TS-induced human HT-29 cell necroptosis model assessed as cell viability at 0.039 to 10 uM pretreated with compound for 1 hr followed by treated with TS for 12 hrs; type: functional, cell-based; conditions: dose 0.039-10 µM
# Receptor-interacting serine/threonine-protein kinase 3 (Mus musculus), sequence (Q9QZL0 whole entry): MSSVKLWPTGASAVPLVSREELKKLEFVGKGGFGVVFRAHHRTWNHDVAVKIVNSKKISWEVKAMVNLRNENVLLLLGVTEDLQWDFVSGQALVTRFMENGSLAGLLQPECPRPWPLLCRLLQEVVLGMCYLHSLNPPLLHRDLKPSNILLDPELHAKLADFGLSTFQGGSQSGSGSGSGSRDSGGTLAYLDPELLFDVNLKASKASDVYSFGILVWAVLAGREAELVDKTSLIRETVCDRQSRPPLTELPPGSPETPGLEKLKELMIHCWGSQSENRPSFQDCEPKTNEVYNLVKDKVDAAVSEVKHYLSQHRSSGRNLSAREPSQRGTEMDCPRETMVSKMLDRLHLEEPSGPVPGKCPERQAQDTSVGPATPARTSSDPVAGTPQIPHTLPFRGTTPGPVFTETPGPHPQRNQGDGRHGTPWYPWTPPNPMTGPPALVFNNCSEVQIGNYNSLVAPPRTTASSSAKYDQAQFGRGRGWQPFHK
smiles,measurement,setting,value
O=C(c1ccc(-c2cc3cccnc3[nH]2)cc1)N1CCOCC1,Activity,L929 [1],Dose-Dependent Effect
same,survival at 40 mg/kg,Mus musculus [2],100%
same,Activity,L929 [3],Active
same,Activity,HT-29 [4],Dose-Dependent Effect
same,inhibition,[5],Active
same,inhibition,[6],Tde
same,IC50,[7],88 nM
same,survival at 10 mg/kg,Mus musculus [8],75%
same,CC50,[9],> 50000 nM
same,Activity,U-937,Dose-Dependent Effect
same,inhibition,[10],Tde
same,Activity,Mus musculus [11],Active
same,EC50,L929 [12],56 nM
same,survival at 25 mg/kg,Mus musculus [13],100%
same,Activity,HT-29 [14],inactive
